Data set [1] relates to Grpr expression in ESR1pos 1057 melanoma cells. Put plainly: Pharmacological targeting of ERα: Grpr expression in 1057 cells. The note with it: 100 nM E2 or 1 µM ICI 182,780, 72 h, after oestrogen starvation for four days. The format is cell-based, mouse. As to the method:
(§1) RNA (3 µg) was reverse transcribed using M‐MLV reverse transcriptase (Invitrogen), according to the manufacturer’s protocol. The newly synthesized cDNA was used as a template for qPCR with the iTaq Universal SYBR Green Supermix. Technical triplicates were used for each sample and the quantified RNA normalized against TBP (human) or Hprt (mouse) as housekeeping transcripts (Supplementary Tables 9 and 10).
(§2) For hormone depletion, FCS was stripped using the dextran-coated charcoal method. In brief, Norit activated charcoal (C6241-5G, Sigma-Aldrich, final concentration of 0.25%) and Dextran T-70 (31390, Sigma-Aldrich, final concentration of 0.0025%) in 0.25 M sucrose/1.5 mM MgCl2/10 mM HEPES (H4034, Sigma-Aldrich), pH 7.4, were incubated overnight at 4 °C. The volume equivalent to the volume of the FCS to strip was pipetted into a new 50 ml tube and centrifugated at 500g for 10 min to remove the supernatant. The FCS was incubated with the activated charcoal for 12 h at 4 °C. The treated FCS was then filtered through a 0.22-µM pore filter to ensure sterility and mixed with the appropriate phenol red-free medium and PS. Cells were collected using phenol red-free trypsin and starved for oestrogen using phenol red-free/10% stripped FCS for four days. […]

Data set [2] relates to GRPR mRNA in MCF7 cells. As to the kind of experiment: Pharmacological targeting of ERα: GRPR mRNA in MCF7 cells. It counts as cell-based, human. As to conditions: 17β-estradiol 100 nM or ICI 182,780 1 µM. As to the method:
as §1, §2

Data set [3] can be described thus: Metabolic stability assay (liver microsomes). It counts as in vitro ADME, mouse. As to the method:
Each compound was diluted to a final concentration of 1 µM in 100 mM phosphate buffer (pH 7.4) containing 0.5 mg ml^−1 mouse liver microsomes, 1 mM NADPH regenerating system and 1 mM MgCl2 and incubated at 37 °C for 1 h. At various time points (0, 2, 10, 20, 40 and 60 min), one volume of ice-cold acetonitrile was added and the supernatants were analysed by LC–MS/MS. To obtain a stability curve, the percentage of remaining test compound at each time point was determined by monitoring the peak area. The half-life was estimated from the slope of the initial linear range of the logarithmic curve of the remaining compound (percentage) against time, assuming first-order kinetics.
Analyses were done on a Shimadzu 8030 LC–MS instrument. Chromatographic separations were done at 40 °C using a 2.6-µm C18 Kinetex column (50 × 2.1 mm; Phenomenex). The mobile phase flow rate was set to 0.5 ml min^−1 and the following program applied for the elution: 0 min, 5% B; 0–1.2 min, 5–95% B; 1.2–1.4 min, 95% B; 1.4–1.42 min, 95-5% B; and 1.42–2.8 min, 5% B (solvent A, 0.05% formic acid in water; solvent B, acetonitrile). The injection volume was 1 µl. The mass spectrometer was interfaced with the liquid-chromatography system using an electrospray ion source. The nitrogen nebulizing gas flow was set to 1.5 l min^−1 and the drying gas flow to 15 ml min^−1. […]

The test system of data set [4] is 1057 ΔEcad melanoma cells. As to the kind of experiment: ICI/Fulvestrant experiments: lung metastases after tail-vein injection of 1057 cells. It counts as in vivo, C57BL/6J mice. As to the method:
Mouse and human melanoma cells (5 × 10^5) were suspended in 200 µl PBS and injected into the tail veins of eight-week-old C57BL/6J and NSG mice, respectively. Mice were monitored daily and weighed twice weekly. Euthanasia and autopsy were performed following 20% weight loss or reaching ethical end points.
Right lungs were imaged using a Leica MZFLIII binocular microscope with a Scion camera. Metastases were quantified in ImageJ, with macro-metastases (bigger than 0.1 mm) and micro-metastases (0.1 mm or smaller).
In vitro pre-treatment: 1057 melanoma cells (5 × 10^5) were pretreated for 3 days with 1 µM ICI before tail-vein injection. In vivo treatment: 1057 melanoma cells (5 × 10^5) were injected into C57BL/6J mice, followed by […] Fulvestrant (Zentiva) 3 h after injection, then weekly for 3 weeks. Mice were euthanized on day 25 after injection, and lung metastases were assessed by PCR-based Cre transgene detection. DNA was extracted from lung tissue and metastasis burden was analysed statistically.

Data set [5] concerns mouse melanoma cell lines (1057, 1064, 1181, 1039, 1456, 1014). Put plainly: Matrigel invasion assay, mouse melanoma cells. It counts as cell-based. The note with it: 24 h. As to the method:
Matrigel invasion assays were done in transwell plates with 8.0-µm pores (353097, Falcon) coated with 100 µl of 200 µg ml^−1 Matrigel. Depending on the experiments, cells were seeded directly or 24 h after transfection in low-serum medium (0.5% FCS for murine cells and 1% for human cell lines) with 10 nM GRP, 1 µM RC-3095, and/or 1 µM IC 182,780, or in 10% FCS. Then, 24 hours after stimulation, inserts were washed with PBS and non-invading cells were removed. Cells in the inserts were fixed in methanol at −20 °C overnight. The inserts were rinsed and the membrane carefully removed using a sharp scalpel. The membrane was mounted in prolong glass DAPI (1.5 µg ml^−1). Assays were performed in triplicate and automatic counting of invading cells was done using an Image/Fiji macro (10.5281/zenodo.14509394). Sequences of siRNAs are given in Supplementary Table 11.

Data set [6] deals with GRPR, Gαq/11 activation. Put plainly: IP1 detection (HTRF IP-one Gq kit). As to conditions: 4,000 cells, 30 min, 37 °C, StimB buffer, 10 nM GRP, 1 µM RC-3095, 1 µM ICI-182,780 (pre-treatment). It counts as cell-based, mouse. As to the method:
IP1 levels were quantified using the HTRF IP-one Gq detection kit (62IPAPEB, Revvity) following the manufacturer’s protocol. We treated 4,000 cells for 30 min at 37 °C in StimB buffer with 10 nM GRP, 1 µM RC-3095, 1 µM ICI-182,780 or DMSO. FRET signals (620 nm and 665 nm, excitation at 385 nm) were measured using a Clariostar plate reader (BMG Labtech).
(In general: TR-FRET usually uses a lanthanide donor and a delayed reading to cut background.)

Data set [7] concerns the target T1, ERα in 1057 mouse melanoma cells (Mus musculus, UniProt P19785).
T1 construct: Effect of ICI treatment on ERα protein levels in murine 1057 melanoma cells; endogenous in cells; host or cells: 1057 mouse melanoma cells (female, ΔEcad, Esr1-positive)
T1 sequence (P19785 1-599): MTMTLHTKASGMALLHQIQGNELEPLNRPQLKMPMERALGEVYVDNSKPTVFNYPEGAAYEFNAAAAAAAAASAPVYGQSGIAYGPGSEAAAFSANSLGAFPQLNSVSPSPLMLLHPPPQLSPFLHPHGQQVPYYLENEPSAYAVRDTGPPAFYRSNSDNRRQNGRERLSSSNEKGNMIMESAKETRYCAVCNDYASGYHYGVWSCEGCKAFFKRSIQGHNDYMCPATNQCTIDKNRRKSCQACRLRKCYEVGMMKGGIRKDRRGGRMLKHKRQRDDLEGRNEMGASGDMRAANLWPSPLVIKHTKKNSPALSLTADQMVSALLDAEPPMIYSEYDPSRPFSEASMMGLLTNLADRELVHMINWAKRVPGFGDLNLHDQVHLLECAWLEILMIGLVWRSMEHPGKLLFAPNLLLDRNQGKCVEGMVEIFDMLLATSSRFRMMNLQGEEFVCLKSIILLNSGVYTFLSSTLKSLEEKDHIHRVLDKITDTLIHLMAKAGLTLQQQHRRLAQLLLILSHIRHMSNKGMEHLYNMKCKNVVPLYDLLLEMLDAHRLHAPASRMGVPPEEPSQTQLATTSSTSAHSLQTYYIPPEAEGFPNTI
Put plainly: Western blot of ERα after ICI. It counts as cell-based. As to conditions: 1057 cells, ICI 1 μM, 24 h. As to the method:
(§3) Whole-cell lysates were prepared and analysed as described previously. The primary antibodies used were: E-cadherin (610182, BD Transduction Laboratories, dilution 1/1,000); ERα (MA1-27107, Invitrogen, dilution 1/500); YAP (14074, Cell Signaling, dilution 1/1,000); β-actin (A5441, Sigma, dilution 1/5,000); and vinculin (4650, Cell Signaling, dilution 1/5,000). All raw data are provided in Supplementary Fig. 1.
(In western blotting, separated proteins are transferred to a membrane and probed.)

The subject of data set [8] is ΔEcad mouse 1057 melanoma cells. Put plainly: RT-qPCR of β-catenin targets, Esr1 and Grpr after β-catenin inhibition. As to conditions: ΔEcad mouse 1057 cells, iCRT3 10 μM, 48 h (with siRNA targeting Ctnnb1). It counts as cell-based. As to the method:
as §1
In general terms: Quantitative PCR measures a nucleic acid by following its amplification.

Data set [9] relates to Daju human melanoma cells. Put plainly: RT-qPCR and western blot of ESR1/ERα after iCRT3. The format is cell-based. As to conditions: iCRT3 80 μM, 48 h. As to the method: as §1, §3

In the case of `C[C@]12CC[C@@H]3c4ccc(O)cc4CC[C@H]3[C@@H]1CC[C@@H]2O` [E2, 17β-oestradiol], the Grpr expression entry in data set [1] was “increased Grpr expression”. Besides, the “GRPR mRNA expression” value in [2] is “increased GRPR”.

With `CC(C)C[C@@H](CN[C@@H](CC(C)C)C(N)=O)NC(=O)[C@H](Cc1c[nH]cn1)NC(=O)CNC(=O)[C@@H](NC(=O)[C@H](C)NC(=O)[C@H](Cc1c[nH]c2ccccc12)NC(=O)[C@H](CCC(N)=O)NC(=O)[C@H]1Cc2c([nH]c3ccccc23)CN1)C(C)C` [RC-3095], in data set [3] (RC-3095 versus PD-176252, murine plasma and liver microsomes), the “metabolic stability, comparison of the two GRPR antagonists” value was “higher metabolic stability”.

For the molecule `COc1ccc(C2(CNC(=O)[C@](C)(Cc3c[nH]c4ccccc34)NC(=O)Nc3ccc([N+](=O)[O-])cc3)CCCCC2)nc1` [PD-176252], the “Metabolic stability: t1/2” value in data set [3] (mouse, pH 7.4) stood at 1.5 ± 0.1 min.

For the molecule `C[C@]12CC[C@@H]3c4ccc(O)cc4C[C@@H](CCCCCCCCC[S+]([O-])CCCC(F)(F)C(F)(F)F)[C@H]3[C@@H]1CC[C@@H]2O` (stereo partly shown) [ICI 182,780], in [4], the “Visible metastases (%): mice with visible lung metastases / mice injected” value is given as 1/6. In addition, the “mice with no metastases” value in data set [4] (Fulvestrant 50 mg per kg 3 h after injection of 1057 cells and weekly for three weeks, day 25) is listed as 5 of 6. For the same molecule, the “Metastatic burden in lungs, qPCR for the 1057-specific Cre transgene” value in data set [4] (Fulvestrant-treated mice (50 mg per kg), day 25) is reported as “reduced”; in data set [4] (ICI-pretreated 1057 cells, day 25), “reduced”. Also, the “mice with no visible metastases” value in data set [4] (mice injected with ICI-pretreated 1057 cells (3 days, 1 µM), day 25, control 1 of 11) was 9 of 13. The “invasion potential of 1057 cells, ICI alone” value in data set [5] (1 µM ICI without GRP) is given as “no effect”. The “invasion (number of invading cells), GRPR-positive mouse lines” value in data set [5] (1057 (also 1064, GRPR-transduced 1014 and 1181 for RC-3095), 10 nM GRP, 1 µM RC-3095 and/or 1 µM ICI, Matrigel 200 µg ml−1, 0.5% FCS) was “significantly reduced”. In addition, the “invasion (number of invading cells), Grpr-negative mouse lines” value in data set [5] (1181 male Ecad, 1039 female Ecad, 1456 male ΔEcad, 10 nM GRP and/or 1 µM ICI) is listed as “no effect”. The “IP1 production, GRPR-positive cells” value in data set [6] was “reduced IP1 production”. Moreover, the Grpr expression entry in data set [1] was “reduced it”. In addition, the “GRPR mRNA expression” value in data set [2] is “significantly decreased”. In addition, the ERα protein level entry in data set [7] is recorded as “reduced”.

`CCc1ccc(-c2nc(CSCC(=O)NCCc3ccccc3)c(C)o2)cc1` [iCRT3]: the “GRP-induced invasion after β-catenin inhibition” value in [5] (1057 cells, iCRT3 and/or GRP) was “reduced GRP-induced invasion”. Besides, in data set [8], the “expression of Nkd1, Esr1 and Grpr (RT-qPCR)” value was “decreased the expression of Nkd1, Esr1 and Grpr”. Also, the “ERα levels at RNA and protein level” value in data set [9] is “reduction”.

(Values after PMC12267067, “Targeting GRPR for sex hormone-dependent cancer after loss of E-cadherin” (Nature, 2025).)
